In patent US10519169B2, “3-(1H-pyrrolo[2,3-C]pyridin-2-yl)-1 H-pyrazolo[4,3-B]pyridines and therapeutic uses thereof” (Samumed, LLC, priority 2015, dated 2019):

Key:
Type in all cases: cell-based
SW480 colon cancer cells = assay: Cell viability assay (CellTiter-Blue), SW480 cells; conditions: Homo sapiens; for EC50: 96 h, four days, CellTiter-Blue; for inhibition at 10 µM: given for EC50 >10 μM, read-out: percent inhibition at 10 μM
How it was run: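 SW480 cells (~2×10^3/well) exposed to compound for four days at 37 °C/5% CO2, 1:3 8-point dilutions […]. Viability read by CellTiter-Blue resazurin reduction (~3 h, Ex 560/Em 590 nm); EC50 by non-linear regression, with % inhibition at 10 μM given when EC50 >10 μM.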

IL-6 = IL-6 inhibition in LPS-stimulated THP-1 cells (HTRF); conditions: Homo sapiens; for EC50: LPS 500 ng/mL, 22 hours, IL6 HTRF; for inhibition at 10 µM: given for EC50 >10 μM, LPS, IL6, at 10 M [sic], read-out: percent inhibition at 10 M
How it was run: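 THP-1 monocytes, serum-reduced (1% FBS) for 24 h, were preincubated 2 h with compound at 0.1% DMSO (10-point, 1:3 dilutions from 10 μM), then stimulated with 500 ng/mL LPS for 22 h at 37 °C. IL-6 was quantified by HTRF (665/620 nm ratio), normalized to DMSO. EC50 came from 4-parameter regression, or % inhibition at 10 μM.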

[1] = system: primary human fibroblasts derived from IPF patients (LL29 cells) treated with TGF-β1; assay: Inhibition of fibrotic process, αSMA staining in TGF-β1 treated LL29 fibroblasts; conditions: Fibroblast; for EC50: 96 h, TGF-β1 20 ng/mL, 4 days, % cells positive for αSMA; for inhibition at 10 µM: given for EC50 >10 μM, TGF-β1, αSMA, read-out: percent inhibition at 10 μM
How it was run: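 Human IPF-derived LL29 lung fibroblasts in 1% FBS, TGF-β1 20 ng/mL, 11-point compound series, 0.1% DMSO, 4 days at 37 °C. SYTOX-positive cells excluded; % αSMA-positive cells imaged, normalized to TGF-β1/DMSO wells, EC50 by nonlinear fit. Above 10 μM, % inhibition at 10 μM given.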

Row | SMILES | EC50 (SW480 colon cancer cells) | EC50 (IL-6) | inhibition at 10 µM (SW480 colon cancer cells) | inhibition at 10 µM (IL-6) | EC50 [1] | inhibition at 10 µM [1]
1 | O=C(Cc1ccccc1)Nc1cncc(-c2ccc3[nH]nc(-c4cc5c(-c6ccoc6)cncc5[nH]4)c3n2)c1 [Compound 318, N-(5-(3-(4-(Furan-3-yl)-1H-pyrrolo[2,3-c]pyridin-2-yl)-1H-pyrazolo[4,3-b]pyridin-5-yl)pyridin-3-yl)-2-phenylacetamide] | > 10000 nM | > 10000 nM | 23.8% | 30.9% | > 10000 nM | 35.5%
2 | CS(=O)(=O)NCc1cc(F)cc(-c2cncc3[nH]c(-c4n[nH]c5ccc(-c6cncc(CN7CCCCC7)c6)nc45)cc23)c1 [Compound 491, N-(3-Fluoro-5-(2-(5-(5-(piperidin-1-ylmethyl)pyridin-3-yl)-1H-pyrazolo[4,3-b]pyridin-3-yl)-1H-pyrrolo[2,3-c]pyridin-4-yl)benzyl)methanesulfonamide] | 1960 nM | 213 nM |  |  | 1220 nM | 
3 | Fc1cccc(-c2cncc3[nH]c(-c4n[nH]c5ccc(C6CCNCC6)nc45)cc23)c1 [Compound 505, 3-(4-(3-Fluorophenyl)-1H-pyrrolo[2,3-c]pyridin-2-yl)-5-(piperidin-4-yl)-1H-pyrazolo[4,3-b]pyridine] | > 10000 nM | 1110 nM | 26% |  | > 10000 nM | 0%
4 | Fc1ccccc1-c1cncc2[nH]c(-c3n[nH]c4ccc(-c5cn[nH]c5)nc34)cc12 [Compound 539, 3-(4-(2-Fluorophenyl)-1H-pyrrolo[2,3-c]pyridin-2-yl)-5-(1H-pyrazol-4-yl)-1H-pyrazolo[4,3-b]pyridine] | 2880 nM | 160 nM |  |  | 2310 nM | 
5 | Cn1cc(-c2ccc3[nH]nc(-c4cc5c(-c6cccnc6)cncc5[nH]4)c3n2)cn1 [Compound 556, 5-(1-Methyl-1H-pyrazol-4-yl)-3-(4-(pyridin-3-yl)-1H-pyrrolo[2,3-c]pyridin-2-yl)-1H-pyrazolo[4,3-b]pyridine] | 4040 nM | 3710 nM |  |  | 3020 nM | 
6 | Cc1ncc(-c2ccc3[nH]nc(-c4cc5c(-c6ccncc6)cncc5[nH]4)c3n2)n1C [Compound 573, 5-(1,2-Dimethyl-1H-imidazol-5-yl)-3-(4-(pyridin-4-yl)-1H-pyrrolo[2,3-c]pyridin-2-yl)-1H-pyrazolo[4,3-b]pyridine] | > 10000 nM | > 10000 nM | 5.3% | 0% | 2190 nM | 
7 | c1cc(-c2cncc3[nH]c(-c4n[nH]c5ccc(-c6cncc(OCCN7CCCC7)c6)nc45)cc23)co1 [Compound 690, 3-(4-(Furan-3-yl)-1H-pyrrolo[2,3-c]pyridin-2-yl)-5-(5-(2-(pyrrolidin-1-yl)ethoxy)pyridin-3-yl)-1H-pyrazolo[4,3-b]pyridine] | > 10000 nM | > 10000 nM | 0% | 9.7% | > 10000 nM | 29.5%

Second part, led by results:

Row | EC50 (SW480 colon cancer cells) | EC50 (IL-6) | SMILES | inhibition at 10 µM (SW480 colon cancer cells) | inhibition at 10 µM (IL-6) | EC50 [1] | inhibition at 10 µM [1]
8 | 2780 nM | 115 nM | Cc1ccncc1-c1ccc2[nH]nc(-c3cc4c(-c5cc(F)cc(CNS(C)(=O)=O)c5)cncc4[nH]3)c2n1 [Compound 481, N-(3-Fluoro-5-(2-(5-(4-methylpyridin-3-yl)-1H-pyrazolo[4,3-b]pyridin-3-yl)-1H-pyrrolo[2,3-c]pyridin-4-yl)benzyl)methanesulfonamide] |  |  | 262 nM | 
9 | > 10000 nM | 649 nM | CS(=O)(=O)NCc1cc(F)cc(-c2cncc3[nH]c(-c4n[nH]c5ccc(-c6cncnc6)nc45)cc23)c1 [Compound 503, N-(3-Fluoro-5-(2-(5-(pyrimidin-5-yl)-1H-pyrazolo[4,3-b]pyridin-3-yl)-1H-pyrrolo[2,3-c]pyridin-4-yl)benzyl)methane sulfonamide] | 28.3% |  | 2210 nM | 
10 | > 10000 nM | 31 nM | CS(=O)(=O)NCc1cc(F)cc(-c2cncc3[nH]c(-c4n[nH]c5ccc(-c6ccccn6)nc45)cc23)c1 [Compound 504, N-(3-Fluoro-5-(2-(5-(pyridin-2-yl)-1H-pyrazolo[4,3-b]pyridin-3-yl)-1H-pyrrolo[2,3-c]pyridin-4-yl)benzyl)methanesulfonamide] | 47.6% |  | 3670 nM | 
